What was measured:
[1] = Agonist activity at human-mouse chimeric GPR119 expressed in tetracycline-induced Flp-In-T-Rex-HEK293 cells assessed as accumulation of cAMP after 50 mins by HTRF assay; assay type: cell-based; settings: HEK293, 50 min
Mus musculus [2] = test: Antidiabetic activity in C57BL/6J mouse assessed as reduction in plasma glucose level at 0.03 mg/kg, po administered for 60 mins followed by glucose challenge measured for 30 to 120 mins by OGTT relative to vehicle-treated control; assay type: functional; parameters: scale not given: the % may be the effect or the level left
[3] = Half life in human liver microsomes at 50 uM preincubated for 5 mins followed by NADPH addition by LC/MS-MS analysis; assay type: ADME
Mus musculus [4] = test: Antidiabetic activity in C57BL/6J mouse assessed as reduction in plasma glucose level at 0.1 mg/kg, po administered for 60 mins followed by glucose challenge measured for 30 to 120 mins by OGTT relative to vehicle-treated control; assay type: functional; parameters: scale not given: the % may be the effect or the level left

SMILES	EC50 [1] [nM]	half-life at 50 µM [3] [h]	Activity (Mus musculus [2]) [%]	Activity (Mus musculus [4]) [%]
CCCc1cnc(N2CCC(Oc3cc(=O)n(-c4ccc(N5CCC(O)C5=O)c(C)n4)cc3Cl)CC2)nc1 (configuration not stated)	4	2	19	–
Cc1nc(-n2cc(Cl)c(OC3CCN(c4ncc(Cl)cn4)CC3)cc2=O)ccc1N1CC[C@H](O)C1=O	4	1.3	26	–
CCCc1cnc(N2CCC(Oc3ccn(-c4ccc(N5CCC(O)C5=O)c(C)n4)c(=O)c3)CC2)nc1 (configuration not stated)	16	1.27	–	21
Cc1nc(-n2ccc(OC3CCN(c4ncc(Cl)cn4)CC3)cc2=O)ccc1N1CCC(O)C1=O (configuration not stated)	10	1.68	–	–

These reach a lower EC50 [1]. Values come first.

EC50 [1] [nM]	half-life at 50 µM [3] [h]	SMILES	Activity (Mus musculus [2]) [%]	Activity (Mus musculus [4]) [%]
2	1.57	Cc1nc(-n2cc(Cl)c(OC3CCN(c4ncc(Cl)cn4)CC3)cc2=O)ccc1N1CCC(O)C1=O (configuration not stated)	36	–
3	1.62	Cc1nc(-n2cc(Cl)c(OC3CCN(c4ncc(Cl)cn4)CC3)cc2=O)ccc1N1CC[C@@H](O)C1=O	39	–
